The values below are quoted from earlier work in US20040121961A1, “Uroguanylin and cyclooxygenase-2 inhibitor combinations for inhibition of intestinal cancer” (priority 2004, published 2004).

For series [1], the system named is T-84, human colon carcinoma cells. Conditions: treatment with uroguanylin; reported in PCT/US00/21998.
Series [2] has as its system Min-mouse, an animal model for human Familial Adenomatous Polyposis (FAP). Conditions: oral administration, reported in PCT/US00/21998.

No end group written: not given here.

For “uroguanylin: enteric peptide hormone, GC-C receptor agonist; human uroguanylin chemically synthesized by solid phase peptide synthesis (NDDCELCVNVACTGCL; ends and bridges not checked; cysteine pairing not given here; UniProt Q16661 97-112, looked up)”, the “apoptosis in T-84 cells” value in series [1] is given as “induction of apoptosis”. Besides, in series [2], the “polyp formation in the intestinal tract” value is “inhibition in polyp formation”.
